Here are results for 15 compounds from ChEMBL document CHEMBL1136660, “Novel 5-cyclopropyl-1,4-benzodiazepin-2-ones as potent and selective I(Ks)-blocking class III antiarrhythmic agents” (Bioorg Med Chem Lett, 2003).

A word on the IC50: it is the concentration at which inhibition is half-maximal. Low readings indicate greater potency in that assay, high ones weaker potency in that assay.

The species named for series [1] is Cavia porcellus. Nature of the series: Inhibitory concentration against IKs current was measured in isolated guinea pig myocytes during a 1 s voltage clamp step […]. The class given is functional.
Series [2] in a line: Percent metabolized in an in vitro human liver microsomal incubation assay after 60 min. The conditions noted are these: liver microsomes, read-out: Metabolism. It is filed as ADME, Microsome. (Liver microsomes are vesicles of endoplasmic reticulum, rich in cytochrome P450 enzymes.)
The species entered for series [3] is Cavia porcellus. Description: Inhibitory concentration against IKr current was measured in isolated guinea pig myocytes during a 0.5 s voltage clamp step from -50 to -10 mV. It is filed as functional.
For series [4], the system named is Canis familiaris. Nature of the series: QTc interval of compound was measured in chloralose anesthetized dogs(for its Class III activity in vivo) at dose of 0.001 mg/kg (iv); units are msec/square root of sec. It is filed as functional, Canis lupus familiaris.
The subject of series [5] is Canis familiaris. Nature of the series: QTc interval of compound was measured in chloralose anesthetized dogs(for its Class III activity in vivo) at dose of 0.01 mg/kg (iv); units are msec/square root of sec. The class given is functional, Canis lupus familiaris.
Series [6] deals with Canis familiaris. Nature of the series: QTc interval of compound was measured in chloralose anesthetized dogs(for its Class III activity in vivo) at dose of 0.1 mg/kg (iv); units are msec/square root of sec. The class given is functional, Canis lupus familiaris.
The test system of series [7] is Canis familiaris. Nature of the series: Ventricular relative Refractory period (msec) of compound was measured in chloralose anesthetized dogs (for its Class III activity in vivo) at dose of 0.01 mg/kg (iv). The class given is functional, Canis lupus familiaris, Heart.
Series [8] deals with Canis familiaris. Nature of the series: Ventricular relative Refractory period (msec) of compound was measured in chloralose anesthetized dogs (for its Class III activity in vivo) at dose of 0.1 mg/kg (iv). The class given is functional, Canis lupus familiaris, Heart.
Series [9] concerns Canis familiaris. Nature of the series: Ventricular relative Refractory period (msec) of compound was measured in chloralose anesthetized dogs (for its Class III activity in vivo) at dose of 0.001 mg/kg (iv). It is filed as functional, Canis lupus familiaris, Heart.

In turn, `CC[C@@H](C)N1C(=O)C(NC(=O)Cc2ccc(C(F)(F)F)cc2C(F)(F)F)N=C(c2ccccc2)c2ccccc21` (single isomer, unassigned; (+)) showed an IC50 in series [1] of 3.7 nM.

Turning to `CC(C)C1=NC(NC(=O)Cc2ccc(C(F)(F)F)cc2C(F)(F)F)C(=O)N(CC(F)(F)F)c2ccccc21` (configuration not stated), in series [2], the metabolised at 1 h was 70%. In addition, the IC50 in series [3] is greater than 1000 nM; in series [1] (Cavia porcellus) it was 6 nM.

As to `CC[C@@H](C)N1C(=O)C(NC(=O)Cc2ccc(C(F)(F)F)cc2C(F)(F)F)N=C(C2CC2)c2ccccc21` (single isomer, unassigned; (-)), the “QTc Interval” value in series [4] came to 384 ms s-1; in [5], 392 ms s-1; in series [6] it was 454 ms s-1. The “Ventricular relative refractory period” value in [7] is 180 ms; in series [8] it was 198 ms; in [9] it was 176 ms. In series [1], this compound came in with an IC50 of 0.08 nM.

Consider `O=C(Cc1ccc(C(F)(F)F)cc1C(F)(F)F)N[C@@H]1N=C(c2ccccc2)c2ccccc2N(CC(F)(F)F)C1=O` [L-768673], for which the IC50 turned out to be 6000 nM in [3] and 6 nM in [1] (Cavia porcellus).

As for `O=C(Cc1ccc(C(F)(F)F)cc1C(F)(F)F)NC1N=C(C2CC2)c2ccccc2N(CC(F)(F)F)C1=O` (single isomer, unassigned; (+)), the metabolised at 1 h in series [2] was roughly 15%. Besides, the half-inhibitory concentration (IC50) was greater than 1000 nM in [3] and 1.5 nM in series [1] (Cavia porcellus).

Regarding `CN1C(=O)C(NC(=O)Cc2ccc(C(F)(F)F)cc2C(F)(F)F)N=C(C2CC2)c2ccccc21` (stereo in doubt; 4 (+)), 38 nM corresponded to half-maximal inhibition in series [1] (IC50).

For the compound `CCN1C(=O)C(NC(=O)Cc2ccc(C(F)(F)F)cc2C(F)(F)F)N=C(C2CC2)c2ccccc21` (single isomer, unassigned; (-)), 4 nM corresponded to half-maximal inhibition in [1] (IC50).

Compound `CC[C@H](C)N1C(=O)C(NC(=O)Cc2ccc(C(F)(F)F)cc2C(F)(F)F)N=C(C2CC2)c2ccccc21` (single isomer, unassigned; (+)) came in with an IC50 in series [1] of 180 nM.

As for `CCCN1C(=O)C(NC(=O)Cc2ccc(C(F)(F)F)cc2C(F)(F)F)N=C(C2CC2)c2ccccc21` (single isomer, unassigned; (+)), the IC50 in series [3] was greater than 1000 nM; in series [1], 165 nM.

Turning to `CCN1C(=O)C(NC(=O)Cc2ccc(C(F)(F)F)cc2C(F)(F)F)N=C(C2CC2)c2ccccc21` (stereo in doubt; 6 (+)), the IC50 is greater than 1000 nM in [3] and 200 nM in series [1].

Take `CN1C(=O)C(NC(=O)Cc2ccc(C(F)(F)F)cc2C(F)(F)F)N=C(C2CC2)c2ccccc21` (single isomer, unassigned; (-)): the IC50 in [3] is greater than 1000 nM; in series [1], 280 nM.

As for `CC[C@H](C)N1C(=O)C(NC(=O)Cc2ccc(C(F)(F)F)cc2C(F)(F)F)N=C(C2CC2)c2ccccc21` (single isomer, unassigned; (-)), the figures for the IC50 in series [3] and in series [1] were greater than 1000 nM and 0.4 nM, respectively.

Consider `CC[C@@H](C)N1C(=O)C(NC(=O)Cc2ccc(C(F)(F)F)cc2C(F)(F)F)N=C(C2CC2)c2ccccc21` (single isomer, unassigned; (+)), for which the IC50 in series [3] is greater than 1000 nM; in series [1], 50 nM.

For the compound `CCCN1C(=O)C(NC(=O)Cc2ccc(C(F)(F)F)cc2C(F)(F)F)N=C(C2CC2)c2ccccc21` (single isomer, unassigned; (-)), the IC50 in series [1] turned out to be 1.2 nM.

As to `CC[C@@H](C)N1C(=O)C(NC(=O)Cc2ccc(C(F)(F)F)cc2C(F)(F)F)N=C(c2ccccc2)c2ccccc21` (stereo in doubt; 15 (-)), the IC50 in series [3] was greater than 1000 nM; in series [1], 44 nM.
